Experiment [1] concerns Esherichia coli (gram negative bacterium number 25922). As to the kind of experiment: Inactivation of E. coli by 300 ns electric pulses combined with antibiotic (CFU plating). The arrangement: synergy, E. coli: dose or concentration left out as unconfirmed. It counts as cell-based, Escherichia coli. As for the experimental part:
(§1) Equipment. Used was a capacitor based Blumlein pulse generator with a spark gap switch to produce trapezoidal EPs of 300 ns duration at the peak with rise and fall times close to 50 ns. Multiple pulses were delivered at a frequency of 1 Hz.
The samples were treated in a standard electroporation cuvette (Dot Scientific) whose resistance must match the pulse generator's impedance to prevent pulse reflection. […] Used were 2 mm cuvettes to ensure consistency between tests, and the applied voltage was measured across the cuvette using a LeCroy PPE 20 kV high voltage probe with a 1000:1 attenuation feeding into a TeleDyne LeCroy Waverunner 6 Zi Oscilloscope capable of measuring signals up to 4 GHz. Assuming a purely parallel plate geometry with minimal fringing gives an electric field E=V/d, where V is the peak voltage of the applied pulse and d is the gap distance.
(§2) Sample Preparation. These experiments assessed Stapphylococcus aureus (gram positive bacterium number 25923) from ATCC and Esherichia coli (gram negative bacterium number 25922) inoculated in luria broth (LB Broth Lennox, powder microbial growth medium. SIGMA-ALDRICH) by taking 8 mL of broth in a 50 mL sterile conical tube and incubating in a shaker for 20 h at 37° C. The sample was then diluted with fresh Luria broth until attaining an optical density of 0.25 for 100 μL on a photospectrometer (Molecular Devices) for a wavelength of 562 nm as measured in a 96-well plate. The optical density, which varies with growth or tube volume, was determined experimentally and set between 1×10^8 and 1.5×10^8 colony forming units (CFUs)/mL for the samples to be pulsed. These samples were then plated at dilutions between 10-6 and 100 (no dilution) depending on the effectiveness of the pulse treatments.
(§3) Electric Pulse Treatment Protocol. […] Although no consensus exists on a universal scaling law for applied EP “dose,” we fixed the energy density
(§4) [formula] • where N is the number of pulses and τ is the pulse duration. Fixing U for E=40, 30, and 20 kV/cm gave N=250, 445, and 1000 pulses, respectively. Cultures were plated as described below.
Cuvettes were filled with 365 μL of sample (sufficient to just cover the electrodes) and then 250 μL of molecular biology grade mineral oil was placed on top.
Added were 0.2, 2, and 20 μg/mL of each drug to the initial bacterial dilutions prior to pulsing. Samples were immediately placed on ice to minimize cell division and reduce variability. These aliquots were also used to plate individual unpulsed controls for each drug concentration.
(§5) Plating. Plating was done on standard disposable tissue culture Petri dishes from VWR (15 cm diameter, 10 mm height) and covered with 10 mL of agar in luria broth (Agar, microbiology tested powder, SIGMA-ALDRICH), which was prepared by adding 20 g of LB lennox (SIGMA-ALDRICH) and 15 g/L of agar to water and then autoclaved.
Plated were samples at dilutions of 10^−6 and 10^−3 for low and high electric field treatments, respectively, and at 10^−6 and 10^−5 for controls All samples containing 100 μL of pulsed or diluted cultures were plated on LB agar plates and counted after overnight incubation at 37° C.
Pulsing with drugs: bacterial samples of both gram-positive S. aureus and gram-negative E. coli strains were pulsed in a solution with 0.2, 2, and 20 μg/mL of tobramycin and compared to an un-pulsed drug-exposed control. Pulsing and plating were performed to ensure that the drug exposure time of the bacteria was approximately fifteen minutes.

In experiment [2] the test system is Stapphylococcus aureus (gram positive bacterium number 25923). Briefly: Inactivation of S. aureus by 300 ns electric pulses combined with antibiotic (CFU plating). It is filed as cell-based, Staphylococcus aureus. As for the experimental part:
as §1
The samples were treated in a standard electroporation cuvette (Dot Scientific) whose resistance must match the pulse generator's impedance to prevent pulse reflection. Utilizing Luria broth, containing 0.5% NaCl, in a cuvette with gap distances of 1 mm and 2 mm yielded the best electrical match (no reflections in the measured signal). Used were 2 mm cuvettes to ensure consistency between tests, and the applied voltage was measured across the cuvette using a LeCroy PPE 20 kV high voltage probe with a 1000:1 attenuation feeding into a TeleDyne LeCroy Waverunner 6 Zi Oscilloscope capable of measuring signals up to 4 GHz. Assuming a purely parallel plate geometry with minimal fringing gives an electric field E=V/d, where V is the peak voltage of the applied pulse and d is the gap distance.
as §2, §3, §4
Cuvettes were filled with 365 μL of sample (sufficient to just cover the electrodes) and then 250 μL of molecular biology grade mineral oil was placed on top. Keeping the samples on ice upon achieving the required dilution further reduced experimental variability by slowing biological processes, such as fission This facilitated the assessment of the inactivation efficiency of EPs, drugs, and combined treatments.
Tests used the clinically relevant, bactericidal drug tobramycin, which targets the 30S and 50S ribosome complex and has a clinical dose from 4 to 5 μg/mL and rifampicin, which inhibits bacterial […]. Added were 0.2, 2, and 20 μg/mL of each drug to the initial bacterial dilutions prior to pulsing. Samples were immediately placed on ice to minimize cell division and reduce variability. These aliquots were also used to plate individual unpulsed controls for each drug concentration.
as §5
(§6) Plated were samples at dilutions of 10^−6 and 10^−3 for low and high electric field treatments, respectively, and at 10^−6 and 10^−5 for controls All samples containing 100 μL of pulsed or diluted cultures were plated on LB agar plates and counted after overnight incubation at 37° C. […]

Experiment [3] concerns bacteria. Briefly: Low-dose tobramycin combined with a train of NSEPs, bacterium not specified. The conditions noted are these: 0.2 μg/mL, 1/20th of the recommended clinical dose; whole process approximately 15 min. It is filed as cell-based.
Description: as §1
as §2, with “These samples were then plated at dilutions between 10-6 and 100 (no dilution) depending on the effectiveness of the pulse treatments.” left out
as §6

Setting [4] is: same energy, different electric fields and number of pulses, different concentrations, vs antibiotic alone.

The text below walks through data of patent US20250195660A1, “INACTIVATING BACTERIA WITH ELECTRIC PULSES AND ANTIBIOTICS” (Purdue Research Foundation, priority 2018, published 2025).

The structures appear in SMILES notation. Entries after “also recorded” stand apart in the source; their conditions may differ.

Turning to `NC[C@H]1O[C@H](O[C@H]2[C@H](O)[C@@H](O[C@H]3O[C@H](CO)[C@@H](O)[C@H](N)[C@H]3O)[C@H](N)C[C@@H]2N)[C@H](N)C[C@@H]1O` [tobramycin], the “synergy, E. coli” value in experiment [1] (20 kV/cm treatment) is given as “did not”; in experiment [1] (30 and 40 kV/cm treatments), “exhibited synergy”; in experiment [1] (any of the applied electric fields, any concentration (FIG. 5B)), “experienced synergy”. In experiment [1] (40 kV/cm EPs combined with antibiotic, considered complete sterilization), the “reduction of E. coli” value is “over 9 log-10”. Moreover, the “effect of combining trains of 300 ns EPs with antibiotic on amount of viable E. coli” value in experiment [1] (setting [4]) is listed as “synergistically reduced; also recorded: significantly greater inactivation”. In experiment [2] (20 kV/cm EPs + 0.2 μg/mL), the “reduction in S. aureus population” value is 10-20%. The entries for the “log-reduction of S. aureus” value in experiment [2] (20 kV/cm EPs + 2 μg/mL) and in experiment [2] (20 kV/cm EPs + 20 μg/mL) were 1.5 log and 2.6 log, respectively. For the same molecule, the “synergy (additional inactivation induced by the antimicrobial for a given pulse condition), S. aureus” value in experiment [2] (20 kV/cm pulse trains, 0.2 μg/mL) is reported as “no synergy”. Also, the “synergy, S. aureus” value is on record as 1.5 log in experiment [2] (20 kV/cm pulse trains, 2.0 μg/mL); “synergies occurred” in experiment [2] (30 and 40 kV/cm pulse trains, 2 and 20 μg/mL doses). For the same molecule, the “effect of combining trains of 300 ns EPs with antibiotic on amount of viable S. aureus” value in experiment [2] (setting [4]) is given as “synergistically reduced; also recorded: significantly greater inactivation”. Moreover, in experiment [3], the “synergy with NSEPs” value is given as “Synergy occurred”.
